Data taken from patent publication US20190023658A1, “SUBSTITUTED 2-DIFLUOROMETHYL-NICOTIN(THIO)CARBOXANILIDE DERIVATIVES AND THEIR USE AS FUNGICIDES” (Bayer CropScience Aktiengesellschaft, priority 2015, published 2019).

Columns and labels:
[1] = Log P by HPLC on reversed phase columns (EEC directive 79/831 Annex V.A8); format: physicochemical; conditions: [a] LC-UV, acidic range, 0.1% formic acid in water and acetonitrile as eluent
Description: Measurement of Log P values was performed according to EEC directive 79/831 Annex V.A8 by HPLC (High Performance Liquid Chromatography) on reversed phase columns with the following methods: [a] Log P value is determined by measurement of LC-UV, in an acidic range, with 0.1% formic acid in water and acetonitrile as eluent (linear gradient from 10% acetonitrile to 95% acetonitrile). [b] Log P value is determined by measurement of LC-UV, in a neutral range, with 0.001 molar ammonium acetate solution in water and acetonitrile as eluent (linear gradient from 10% acetonitrile to 95% acetonitrile). Calibration was done with straight-chain alkan2-ones (with 3 to 16 carbon atoms) with known Log P values (measurement of Log P values using retention times with linear interpolation between successive alkanones). Lambda-max-values were determined using UV-spectra from 200 nm to 400 nm and the peak values of the chromatographic signals.

[2] = test system: Puccinia recondita; assay: In vivo preventive test on Puccinia recondita (brown rust on wheat); conditions: 10 ppm of active ingredient; wheat plants, preventive spray, evaluated 11 days after inoculation
Description: (§1) Example: In Vivo Preventive Test on Puccinia recondita (Brown Rust on Wheat) [table] The active ingredients are made soluble and homogenized in a mixture of Dimethyl sulfoxide/Acetone/Tween® 80 and then diluted in water to the desired concentration. The young plants of wheat are treated by spraying the active ingredient prepared as described above. Control plants are treated only with an aqueous solution of Acetone/Dimethyl sulfoxide/Tween® 80. After 24 hours, the plants are contaminated by spraying the leaves with an aqueous suspension of Puccinia recondita spores. The contaminated wheat plants are incubated for 24 hours at 20° C. and at 100% relative humidity and then for 10 days at 20° C. and at 70-80% relative humidity. The test is evaluated 11 days after the inoculation. 0% means an efficacy which corresponds to that of the control plants while an efficacy of 100% means that no disease is observed.

[3] = test system: Uromyces appendiculatus; assay: In vivo preventive test on Uromyces appendiculatus (bean rust); conditions: 500 ppm of active ingredient; bean plants, preventive spray, evaluated 11 days after inoculation
Description: as §1, with “Uromyces appendiculatus (Bean Rust)” for “Puccinia recondita (Brown Rust on Wheat)”, “bean” for “wheat”, “Uromyces appendiculatus” for “Puccinia recondita”

Row | LogP [1] | SMILES | efficacy [2] | efficacy [3]
1 | 3.29^[a] | O=C(Nc1ccccc1Oc1cccc(Cl)c1)c1cccnc1C(F)F [Example I-06] | at least 70% | 
2 | 3.96^[a] | O=C(Nc1ccc(F)cc1-c1ccc(Cl)c(Cl)c1)c1c(C(F)F)ccnc1C(F)F [Example I-31] |  | at least 70%
